In patent US20250346585A1 (Alexion Pharmaceuticals, Inc., priority 2022, published 2025) one finds IC50 data, which are given here for 24 compounds.

The structures appear in SMILES notation. Some results are limits rather than exact numbers.

In one assay the target is Human complement C1s enzyme (Homo sapiens (Human), UniProt P09871). The experiment in a line: Human C1s enzyme assay. The class given is biochemical. The following applies: Human C1s enzyme assay of Example 3; read-out: IC50 (Stars). Summed up: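 Purified serum-derived human C1s (1.16 nM final) preincubated 5 min at room temperature with compound in 50 mM Tris, 1 M NaCl, pH 7.5. Z-L-Lys-SBzl thioester substrate and DTNB added (100 μM each, final); A405 read every 30 s for 30 min. IC50 from nonlinear regression of reaction rates against compound concentration.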
Sequence of Human complement C1s enzyme (P09871 438-688 limits assumed): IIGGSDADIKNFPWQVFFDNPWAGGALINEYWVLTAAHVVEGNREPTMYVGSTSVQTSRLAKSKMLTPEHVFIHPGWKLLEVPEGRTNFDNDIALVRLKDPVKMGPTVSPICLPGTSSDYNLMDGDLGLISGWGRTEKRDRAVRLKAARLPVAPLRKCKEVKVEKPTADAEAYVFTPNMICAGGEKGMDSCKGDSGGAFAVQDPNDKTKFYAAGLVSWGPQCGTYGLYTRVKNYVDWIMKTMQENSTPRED
Sequence of Human complement C1s enzyme (P09871 16-437 partner limits assumed): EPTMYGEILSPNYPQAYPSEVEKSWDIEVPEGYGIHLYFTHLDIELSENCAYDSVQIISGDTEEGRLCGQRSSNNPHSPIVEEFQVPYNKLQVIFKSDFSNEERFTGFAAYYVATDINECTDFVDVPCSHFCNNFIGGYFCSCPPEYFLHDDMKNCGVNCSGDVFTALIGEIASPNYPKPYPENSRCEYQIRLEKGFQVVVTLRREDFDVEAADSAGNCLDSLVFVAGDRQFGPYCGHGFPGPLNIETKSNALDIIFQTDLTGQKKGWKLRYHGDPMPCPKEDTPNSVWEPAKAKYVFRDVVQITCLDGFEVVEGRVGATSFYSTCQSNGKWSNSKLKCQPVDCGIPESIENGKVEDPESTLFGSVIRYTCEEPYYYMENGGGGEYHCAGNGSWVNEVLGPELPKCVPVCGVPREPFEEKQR
Usually IC50 stands for the concentration that gives 50% inhibition. For the compound `N=C(N)c1csc(CNC(=O)[C@@H]2CC3(CN2C(=O)CNC(=O)c2ccc(-c4cnc5[nH]ccc5c4)cc2)OCCO3)c1` [Compound 195, (S)-7-((4-(1H-pyrrolo[2,3-b]pyridin-5-yl)benzoyl)glycyl)-N-((4-carbamimidoylthiophen-2-yl)methyl)-1,4-dioxa-7-azaspiro[4.4]nonane-8-carboxamide], the IC50 was below 0.1 µM.
On the same count and under the same terms, the result for `N=C(N)c1csc(CNC(=O)[C@@H]2CC3(CN2C(=O)CNC(=O)c2ccc(-c4c(F)cccc4F)cc2)OCCO3)c1` [Compound 196, (S)—N-((4-carbamimidoylthiophen-2-yl)methyl)-7-((2′,6′-difluoro-[1,1′-biphenyl]-4-carbonyl)glycyl)-1,4-dioxa-7-azaspiro[4.4]nonane-8-carboxamide] reads below 0.1 µM; that for `Cc1cccc(C)c1-c1ccc(C(=O)NCC(=O)N2CC3(C[C@H]2C(=O)NCc2cc(C(=N)N)cs2)OCCO3)cc1` [Compound 197, (S)—N-((4-carbamimidoylthiophen-2-yl)methyl)-7-((2′,6′-dimethyl-[1,1′-biphenyl]-4-carbonyl)glycyl)-1,4-dioxa-7-azaspiro[4.4]nonane-8-carboxamide], below 0.1 µM.

The same assay, now with this note: Human complement C1s enzyme 1.16 nM, substrate Z-L-Lys-SBzl 100 μM, assay of Example 3; read-out: IC50 (Stars).
With `N=C(N)c1csc(CNC(=O)[C@@H]2CC3(CN2C(=O)CNC(=O)c2ccc(-c4cnn(Cc5ccccc5)c4)cc2)OCCO3)c1` [Compound 198, (S)-7-((4-(1-benzyl-1H-pyrazol-4-yl)benzoyl)glycyl)-N-((4-carbamimidoylthiophen-2-yl)methyl)-1,4-dioxa-7-azaspiro[4.4]nonane-8-carboxamide], the IC50 is below 0.1 µM.
On the same count and under the same terms, the result for `Cc1cc(-c2ccc(C(=O)NCC(=O)N3CC4(C[C@H]3C(=O)NCc3cc(C(=N)N)cs3)OCCO4)cc2)ccc1F` [Compound 199, (S)—N-((4-carbamimidoylthiophen-2-yl)methyl)-7-((4′-fluoro-3′-methyl-[1,1′-biphenyl]-4-carbonyl)glycyl)-1,4-dioxa-7-azaspiro[4.4]nonane-8-carboxamide] reads below 0.1 µM.
On the same count and under the same terms, the same measure for `C[C@@H](NC(=O)[C@@H]1CC2(CN1C(=O)CNC(=O)c1ccc3c(c1)-c1ccccc1C3(F)F)OCCO2)c1cc(C(N)=O)cs1` [Compound 200, (S)—N—((R)-1-(4-carbamoylthiophen-2-yl)ethyl)-7-((9,9-difluoro-9H-fluorene-3-carbonyl)glycyl)-1,4-dioxa-7-azaspiro[4.4]nonane-8-carboxamide]: above 1 µM.
On the same count and under the same terms, the result for `C[C@@H](NC(=O)[C@@H]1C[C@](F)(COCCCCCC(=O)O)CN1C(=O)CNC(=O)c1ccc2c(c1)-c1ccccc1C2(F)F)c1cc(C(=N)N)cs1` [Compound 201, 6-(((3R,5S)-5-(((R)-1-(4-carbamimidoylthiophen-2-yl)ethyl)carbamoyl)-1-((9,9-difluoro-9H-fluorene-3-carbonyl)glycyl)-3-fluoropyrrolidin-3-yl)methoxy)hexanoic acid] reads below 0.1 µM; that for `C[C@@H](NC(=O)[C@@H]1C[C@@H](F)CN1C(=O)CNC(=O)c1ccc2c(c1)-c1ccccc1C2(F)F)c1cc(C(=N)N)cs1` [Compound 202, (2S,4R)—N—((R)-1-(4-carbamimidoylthiophen-2-yl)ethyl)-1-((9,9-difluoro-9H-fluorene-3-carbonyl)glycyl)-4-fluoropyrrolidine-2-carboxamide], below 0.1 µM.
Take `C=C1C[C@@H](C(=O)N[C@H](C)c2cc(C(=N)N)cs2)N(C(=O)CNC(=O)c2ccc3c(c2)-c2ccccc2C3(F)F)C1` [Compound 203, (S)—N—((R)-1-(4-carbamimidoylthiophen-2-yl)ethyl)-1-((9,9-difluoro-9H-fluorene-3-carbonyl)glycyl)-4-methylenepyrrolidine-2-carboxamide]: the IC50 was below 0.1 µM.
On the same count and under the same terms, the same measure for `C[C@@H](NC(=O)[C@@H]1CC2(CN1C(=O)CNC(=O)c1ccc3c(c1)-c1ccccc1C3OC(F)F)OCCO2)c1cc(C(=N)N)cs1` (stereo partly drawn) [Compound 204]: below 0.1 µM; for `C[C@@H](NC(=O)[C@@H]1C[C@@H](OC(F)F)CN1C(=O)CNC(=O)c1ccc2oc3ccccc3c2c1)c1cc(C(=N)N)cs1` [Compound 205, (2S,4R)—N—((R)-1-(4-carbamimidoylthiophen-2-yl)ethyl)-1-((dibenzo[b,d]furan-2-carbonyl)glycyl)-4-(difluoromethoxy)pyrrolidine-2-carboxamide]: below 0.1 µM; for `C[C@@H](NC(=O)[C@@H]1C[C@@H](OC(F)F)CN1C(=O)CNC(=O)c1ccc2cc3ccccc3cc2c1)c1cc(C(=N)N)cs1` [Compound 206, (2S,4R)-1-((anthracene-2-carbonyl)glycyl)-N—((R)-1-(4-carbamimidoylthiophen-2-yl)ethyl)-4-(difluoromethoxy)pyrrolidine-2-carboxamide]: below 0.1 µM.
With `N=C(N)c1csc(CNC(=O)[C@@H]2CC3(CN2C(=O)CNC(=O)c2ccc(-c4ccc(F)c(F)c4)cc2)OCCO3)c1` [Compound 207, (S)—N-((4-carbamimidoylthiophen-2-yl)methyl)-7-((3′,4′-difluoro-[1,1′-biphenyl]-4-carbonyl)glycyl)-1,4-dioxa-7-azaspiro[4.4]nonane-8-carboxamide], the 50% inhibitory concentration (IC50) is below 0.1 µM.
On the same count and under the same terms, the same measure for `N=C(N)c1csc(CNC(=O)[C@@H]2CC3(CN2C(=O)CNC(=O)c2ccc(-c4cc(Cl)cc(Cl)c4)cc2)OCCO3)c1` [Compound 208, (S)—N-((4-carbamimidoylthiophen-2-yl)methyl)-7-((3′,5′-dichloro-[1,1′-biphenyl]-4-carbonyl)glycyl)-1,4-dioxa-7-azaspiro[4.4]nonane-8-carboxamide]: below 0.1 µM; for `N=C(N)c1csc(CNC(=O)[C@@H]2CC3(CN2C(=O)CNC(=O)c2ccc(-c4ccc(F)nc4)cc2)OCCO3)c1` [Compound 209, (S)—N-((4-carbamimidoylthiophen-2-yl)methyl)-7-((4-(6-fluoropyridin-3-yl)benzoyl)glycyl)-1,4-dioxa-7-azaspiro[4.4]nonane-8-carboxamide]: below 0.1 µM; for `Cc1ccc(-c2ccc(C(=O)NCC(=O)N3CC4(C[C@H]3C(=O)NCc3cc(C(=N)N)cs3)OCCO4)cc2)cc1F` [Compound 210, (S)—N-((4-carbamimidoylthiophen-2-yl)methyl)-7-((3′-fluoro-4′-methyl-[1,1′-biphenyl]-4-carbonyl)glycyl)-1,4-dioxa-7-azaspiro[4.4]nonane-8-carboxamide]: below 0.1 µM.
In the case of `Cc1nc(F)ccc1-c1ccc(C(=O)NCC(=O)N2CC3(C[C@H]2C(=O)NCc2cc(C(=N)N)cs2)OCCO3)cc1` [Compound 211, (S)—N-((4-carbamimidoylthiophen-2-yl)methyl)-7-((4-(6-fluoro-2-methylpyridin-3-yl)benzoyl)glycyl)-1,4-dioxa-7-azaspiro[4.4]nonane-8-carboxamide], the IC50 was below 0.1 µM.
Take `N=C(N)c1csc(CNC(=O)[C@@H]2CC3(CN2C(=O)CNC(=O)c2ccc(-c4ccc(F)c(C(=O)O)c4)cc2)OCCO3)c1` [Compound 212, (S)-4′-((2-(8-(((4-carbamimidoylthiophen-2-yl)methyl)carbamoyl)-1,4-dioxa-7-azaspiro[4.4]nonan-7-yl)-2-oxoethyl)carbamoyl)-4-fluoro-[1,1′-biphenyl]-3-carboxylic acid]: the IC50 was below 0.1 µM.
Same read-out and setting: the same measure for `N=C(N)c1csc(CNC(=O)[C@@H]2CC3(CN2C(=O)CNC(=O)c2ccc(-c4ccc(C(=O)O)c(F)c4)cc2)OCCO3)c1` [Compound 213, (S)-4′-((2-(8-(((4-carbamimidoylthiophen-2-yl)methyl)carbamoyl)-1,4-dioxa-7-azaspiro[4.4]nonan-7-yl)-2-oxoethyl)carbamoyl)-3-fluoro-[1,1′-biphenyl]-4-carboxylic acid]: above 1 µM; for `N=C(N)c1csc(CNC(=O)[C@@H]2CC3(CN2C(=O)CNC(=O)c2ccc(-c4ccc(C(=O)O)cc4)cc2)OCCO3)c1` [Compound 214, (S)-4′-((2-(8-(((4-carbamimidoylthiophen-2-yl)methyl)carbamoyl)-1,4-dioxa-7-azaspiro[4.4]nonan-7-yl)-2-oxoethyl)carbamoyl)-[1,1′-biphenyl]-4-carboxylic acid]: below 0.1 µM.
On the same count and under the same terms, the result for `CS(=O)(=O)c1ccc(-c2ccc(C(=O)NCC(=O)N3CC4(C[C@H]3C(=O)NCc3cc(C(=N)N)cs3)OCCO4)cc2)c(F)c1` [Compound 215, (S)—N-((4-carbamimidoylthiophen-2-yl)methyl)-7-((2′-fluoro-4′-(methylsulfonyl)-[1,1′-biphenyl]-4-carbonyl)glycyl)-1,4-dioxa-7-azaspiro[4.4]nonane-8-carboxamide] reads below 0.1 µM.
On the same count and under the same terms, the same measure for `CC(C)S(=O)(=O)c1ccc(-c2ccc(C(=O)NCC(=O)N3CC4(C[C@H]3C(=O)NCc3cc(C(=N)N)cs3)OCCO4)cc2)cc1` [Compound 216, (S)—N-((4-carbamimidoylthiophen-2-yl)methyl)-7-((4′-(isopropylsulfonyl)-[1,1′-biphenyl]-4-carbonyl)glycyl)-1,4-dioxa-7-azaspiro[4.4]nonane-8-carboxamide]: below 0.1 µM.
Regarding `COc1ccc(-c2ccc(C(=O)NCC(=O)N3CC4(C[C@H]3C(=O)NCc3cc(C(=N)N)cs3)OCCO4)cc2)cc1` [Compound 217, (S)—N-((4-carbamimidoylthiophen-2-yl)methyl)-7-((4′-methoxy-[1,1′-biphenyl]-4-carbonyl)glycyl)-1,4-dioxa-7-azaspiro[4.4]nonane-8-carboxamide], the half-maximal inhibitory concentration (IC50) is below 0.1 µM.
On the same count and under the same terms, the same measure for `C[C@@H](NC(=O)[C@@H]1C[C@@H](c2ccccc2)CN1C(=O)CNC(=O)c1ccc2oc3ccccc3c2c1)c1cc(C(=N)N)cs1` [Compound 218, (2S,4S)—N—((R)-1-(4-carbamimidoylthiophen-2-yl)ethyl)-1-((dibenzo[b,d]furan-2-carbonyl)glycyl)-4-phenylpyrrolidine-2-carboxamide]: below 0.1 µM.
